Laboratory results: article PMC8924551, “Functional Characterization of a Flavone Synthase That Participates in a Kumquat Flavone Metabolon” (Frontiers in Plant Science, 2022)

System: T1, FcFNSII-2
T1 construct: microsomes of Saccharomyces cerevisiae WAT11 co-expressing Arabidopsis ATR1 P450 reductase
Assay: yeast microsome assay, UPLC-Q-TOF-MS, Michaelis-Menten fit
Type: biochemical, Fortunella crassifolia
Settings: 1 mM NADPH, 100 mM Tris/HCl pH 7.0, 30°C, 1 h; product apigenin

Km: 3.77 µM
Structure (SMILES): O=C1C[C@@H](c2ccc(O)cc2)Oc2cc(O)cc(O)c21 [naringenin]
